Laboratory results taken from patent publication US12522583B2, “Benzimidazole derivatives and aza-benzimidazole derivatives as Janus kinase 2 inhibitors and uses thereof” (Dana-Farber Cancer Institute, Inc., priority 2018, dated 2026).

Assays:
Assay in all cases: KINOMEscan
Type in all cases: binding
Conditions in all cases: read-out: percent control
[1] = target: ROCK2 (Homo sapiens (Human), UniProt O75116)
From the text: (§1) Example 2. In Vitro Kinase Selectivity Profiling of the Compounds of the Present Disclosure

[2] = target: CAMK2D (Homo sapiens (Human), UniProt Q13557)
From the text: as §1

[3] = target: MLK2 (Homo sapiens (Human), UniProt Q02779)
From the text: as §1

[4] = target: PRKG1 (Homo sapiens (Human), UniProt Q13976)
From the text: as §1

[5] = target: PIK3CB (Homo sapiens (Human), UniProt P42338)
Chain of PIK3CB (P42338 whole entry): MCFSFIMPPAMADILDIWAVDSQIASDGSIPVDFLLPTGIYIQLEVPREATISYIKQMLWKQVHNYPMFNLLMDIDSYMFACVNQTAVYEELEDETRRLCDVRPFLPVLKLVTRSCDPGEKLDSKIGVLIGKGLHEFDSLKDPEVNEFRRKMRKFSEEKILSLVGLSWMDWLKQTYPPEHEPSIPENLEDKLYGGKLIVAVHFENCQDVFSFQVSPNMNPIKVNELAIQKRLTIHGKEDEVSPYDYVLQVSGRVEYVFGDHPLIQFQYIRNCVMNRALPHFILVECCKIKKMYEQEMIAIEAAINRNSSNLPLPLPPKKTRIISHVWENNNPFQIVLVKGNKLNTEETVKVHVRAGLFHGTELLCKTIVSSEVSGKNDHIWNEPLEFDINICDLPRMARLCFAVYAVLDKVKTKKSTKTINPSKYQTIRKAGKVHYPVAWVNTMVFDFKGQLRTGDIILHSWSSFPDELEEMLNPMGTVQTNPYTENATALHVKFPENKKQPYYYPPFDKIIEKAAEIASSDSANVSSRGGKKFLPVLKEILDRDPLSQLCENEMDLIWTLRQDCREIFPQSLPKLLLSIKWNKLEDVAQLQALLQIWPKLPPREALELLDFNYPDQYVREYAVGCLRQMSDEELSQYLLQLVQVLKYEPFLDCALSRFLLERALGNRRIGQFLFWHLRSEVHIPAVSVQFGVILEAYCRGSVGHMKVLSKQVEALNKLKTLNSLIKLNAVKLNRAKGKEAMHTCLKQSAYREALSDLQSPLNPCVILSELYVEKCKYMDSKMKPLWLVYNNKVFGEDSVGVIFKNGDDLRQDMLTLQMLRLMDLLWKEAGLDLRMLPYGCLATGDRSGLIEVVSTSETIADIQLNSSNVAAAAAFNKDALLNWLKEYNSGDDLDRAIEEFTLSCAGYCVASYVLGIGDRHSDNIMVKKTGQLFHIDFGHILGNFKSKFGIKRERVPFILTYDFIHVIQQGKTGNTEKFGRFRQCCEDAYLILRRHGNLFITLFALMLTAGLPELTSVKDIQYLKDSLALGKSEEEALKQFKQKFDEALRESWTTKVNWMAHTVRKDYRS
From the text: as §1

[6] = target: JNK2 (Homo sapiens (Human), UniProt P45984)
From the text: as §1

[7] = target: DAPK3 (Homo sapiens (Human), UniProt O43293)
From the text: as §1

[8] = target: MST1 (Homo sapiens (Human), UniProt Q13043)
From the text: as §1

[9] = target: EGFR(G719S) (Homo sapiens (Human), UniProt P00533, G719S)
From the text: as §1

[10] = target: ERK3 (Homo sapiens (Human), UniProt Q16659)
From the text: as §1

[11] = target: ZAP70 (Homo sapiens (Human), UniProt P43403)
From the text: as §1

[12] = target: JAK1(JH1domain-catalytic) (Homo sapiens (Human), UniProt P23458)
From the text: as §1

[13] = target: CDKL5 (Homo sapiens (Human), UniProt O76039)
From the text: as §1

[14] = target: CHEK2 (Homo sapiens (Human), UniProt O96017)
From the text: as §1

[15] = target: MET(M1250T) (Homo sapiens (Human), UniProt P08581, M1250T)
Chain of MET(M1250T) (P08581 25-1390 M1250T): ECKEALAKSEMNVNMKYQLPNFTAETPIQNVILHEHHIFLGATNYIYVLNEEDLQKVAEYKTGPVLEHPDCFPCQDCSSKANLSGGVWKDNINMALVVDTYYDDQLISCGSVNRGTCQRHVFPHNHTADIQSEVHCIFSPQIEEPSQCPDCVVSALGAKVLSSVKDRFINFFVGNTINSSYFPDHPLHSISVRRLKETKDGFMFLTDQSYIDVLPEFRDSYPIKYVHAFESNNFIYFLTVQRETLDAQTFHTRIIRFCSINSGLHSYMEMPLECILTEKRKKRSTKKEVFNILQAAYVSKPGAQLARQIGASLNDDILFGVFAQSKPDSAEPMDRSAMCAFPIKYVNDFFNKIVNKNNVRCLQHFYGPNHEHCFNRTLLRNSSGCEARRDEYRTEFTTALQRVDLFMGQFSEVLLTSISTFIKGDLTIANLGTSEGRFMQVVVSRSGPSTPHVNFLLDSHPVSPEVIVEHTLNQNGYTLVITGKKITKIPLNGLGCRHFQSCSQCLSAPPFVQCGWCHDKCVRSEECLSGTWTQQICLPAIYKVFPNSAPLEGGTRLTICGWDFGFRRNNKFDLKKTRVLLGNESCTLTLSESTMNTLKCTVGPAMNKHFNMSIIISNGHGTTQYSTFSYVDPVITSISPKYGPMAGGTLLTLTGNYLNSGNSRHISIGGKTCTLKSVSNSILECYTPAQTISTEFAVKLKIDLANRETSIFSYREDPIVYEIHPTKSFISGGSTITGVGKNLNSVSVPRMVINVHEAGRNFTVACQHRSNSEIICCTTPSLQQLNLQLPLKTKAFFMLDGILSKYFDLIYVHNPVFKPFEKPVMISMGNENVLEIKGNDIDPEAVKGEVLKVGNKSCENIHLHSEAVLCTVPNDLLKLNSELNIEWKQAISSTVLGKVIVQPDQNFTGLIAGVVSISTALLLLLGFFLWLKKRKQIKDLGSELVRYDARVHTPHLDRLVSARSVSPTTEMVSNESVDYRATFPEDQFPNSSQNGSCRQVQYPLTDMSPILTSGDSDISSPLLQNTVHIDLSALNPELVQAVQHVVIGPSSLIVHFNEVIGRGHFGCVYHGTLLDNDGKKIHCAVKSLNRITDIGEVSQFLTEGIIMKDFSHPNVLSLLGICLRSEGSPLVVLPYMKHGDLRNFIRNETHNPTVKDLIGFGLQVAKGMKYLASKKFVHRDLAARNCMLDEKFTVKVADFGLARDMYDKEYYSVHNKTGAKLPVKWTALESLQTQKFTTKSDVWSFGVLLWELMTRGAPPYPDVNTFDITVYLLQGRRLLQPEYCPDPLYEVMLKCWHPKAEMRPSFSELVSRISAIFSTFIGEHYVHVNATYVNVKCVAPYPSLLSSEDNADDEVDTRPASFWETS
From the text: as §1

[16] = target: PHKG1 (Homo sapiens (Human), UniProt Q16816)
From the text: as §1

[17] = target: AKT1 (Homo sapiens (Human), UniProt P31749)
From the text: as §1

[18] = target: ABL1(F317I)-nonphosphorylated (Homo sapiens (Human), UniProt P00519, F317I)
From the text: as §1

[19] = target: EPHA4 (Homo sapiens (Human), UniProt P54764)
Chain of EPHA4 (P54764 20-986): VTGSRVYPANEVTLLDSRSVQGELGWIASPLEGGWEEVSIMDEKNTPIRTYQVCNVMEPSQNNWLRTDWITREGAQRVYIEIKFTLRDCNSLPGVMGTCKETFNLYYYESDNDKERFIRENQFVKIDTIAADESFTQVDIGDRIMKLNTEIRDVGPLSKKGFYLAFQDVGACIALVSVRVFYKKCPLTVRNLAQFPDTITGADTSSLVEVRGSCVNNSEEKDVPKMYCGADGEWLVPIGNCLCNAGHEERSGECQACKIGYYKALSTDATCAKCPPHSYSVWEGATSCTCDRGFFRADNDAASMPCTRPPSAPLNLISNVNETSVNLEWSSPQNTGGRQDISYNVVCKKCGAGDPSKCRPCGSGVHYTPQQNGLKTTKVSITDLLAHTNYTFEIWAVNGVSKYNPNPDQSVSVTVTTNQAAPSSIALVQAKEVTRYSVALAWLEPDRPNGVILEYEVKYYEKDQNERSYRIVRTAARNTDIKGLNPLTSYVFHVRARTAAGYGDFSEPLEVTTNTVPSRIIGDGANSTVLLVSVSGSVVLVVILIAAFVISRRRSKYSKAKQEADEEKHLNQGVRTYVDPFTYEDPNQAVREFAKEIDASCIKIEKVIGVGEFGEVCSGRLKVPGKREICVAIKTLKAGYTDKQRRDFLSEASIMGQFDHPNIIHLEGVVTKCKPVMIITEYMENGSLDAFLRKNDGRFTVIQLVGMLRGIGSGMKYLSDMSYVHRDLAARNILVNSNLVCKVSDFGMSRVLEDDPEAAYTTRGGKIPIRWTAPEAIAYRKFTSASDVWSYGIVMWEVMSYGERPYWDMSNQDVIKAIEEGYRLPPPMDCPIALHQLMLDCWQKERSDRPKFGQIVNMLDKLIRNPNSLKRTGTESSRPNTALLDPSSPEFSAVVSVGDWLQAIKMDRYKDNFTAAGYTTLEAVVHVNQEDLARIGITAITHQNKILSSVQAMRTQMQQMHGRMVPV
From the text: as §1

[20] = target: PIP5K1A (Homo sapiens (Human), UniProt Q99755)
From the text: as §1

[21] = target: SRPK3 (Homo sapiens (Human), UniProt Q9UPE1)
From the text: as §1

[22] = target: p38-delta (Homo sapiens (Human), UniProt O15264)
Chain of p38-delta (O15264 whole entry): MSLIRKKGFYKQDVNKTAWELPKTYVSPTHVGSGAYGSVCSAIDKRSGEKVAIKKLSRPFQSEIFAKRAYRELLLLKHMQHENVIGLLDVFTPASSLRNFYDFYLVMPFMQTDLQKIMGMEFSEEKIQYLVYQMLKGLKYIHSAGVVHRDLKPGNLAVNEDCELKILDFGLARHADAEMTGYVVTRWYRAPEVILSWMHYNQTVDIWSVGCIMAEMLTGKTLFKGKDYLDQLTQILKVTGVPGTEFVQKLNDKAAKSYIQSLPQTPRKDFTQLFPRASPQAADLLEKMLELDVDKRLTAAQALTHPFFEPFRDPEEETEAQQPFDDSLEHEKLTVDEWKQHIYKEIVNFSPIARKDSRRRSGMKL
From the text: as §1

[23] = target: PRKD3 (Homo sapiens (Human), UniProt O94806)
From the text: as §1

[24] = target: AURKB (Homo sapiens (Human), UniProt Q96GD4)
From the text: as §1

[25] = target: PHKG2 (Homo sapiens (Human), UniProt P15735)
From the text: as §1

[26] = target: MAP4K5 (Homo sapiens (Human), UniProt Q9Y4K4)
From the text: as §1

[27] = target: PIM3 (Homo sapiens (Human), UniProt Q86V86)
From the text: as §1

[28] = target: ABL1(F317L)-phosphorylated (Homo sapiens (Human), UniProt P00519, F317L)
From the text: as §1

[29] = target: RPS6KA5(Kin.Dom.1-terminal) (Homo sapiens (Human), UniProt O75582)
From the text: as §1

[30] = target: PIK3CA(E545A) (Homo sapiens (Human), UniProt P42336, E545A)
From the text: as §1

[31] = target: PKN1 (Homo sapiens (Human), UniProt Q16512)
From the text: as §1

[32] = target: NEK5 (Homo sapiens (Human), UniProt Q6P3R8)
From the text: as §1

[33] = target: WNK4 (Homo sapiens (Human), UniProt Q96J92)
From the text: as §1

[34] = target: ERK5 (Homo sapiens (Human), UniProt Q13164)
From the text: as §1

[35] = target: EPHB3 (Homo sapiens (Human), UniProt P54753)
From the text: as §1

[36] = target: MINK (Homo sapiens (Human), UniProt Q8N4C8)
From the text: as §1

[37] = target: FES (Homo sapiens (Human), UniProt P07332)
Chain of FES (P07332 whole entry): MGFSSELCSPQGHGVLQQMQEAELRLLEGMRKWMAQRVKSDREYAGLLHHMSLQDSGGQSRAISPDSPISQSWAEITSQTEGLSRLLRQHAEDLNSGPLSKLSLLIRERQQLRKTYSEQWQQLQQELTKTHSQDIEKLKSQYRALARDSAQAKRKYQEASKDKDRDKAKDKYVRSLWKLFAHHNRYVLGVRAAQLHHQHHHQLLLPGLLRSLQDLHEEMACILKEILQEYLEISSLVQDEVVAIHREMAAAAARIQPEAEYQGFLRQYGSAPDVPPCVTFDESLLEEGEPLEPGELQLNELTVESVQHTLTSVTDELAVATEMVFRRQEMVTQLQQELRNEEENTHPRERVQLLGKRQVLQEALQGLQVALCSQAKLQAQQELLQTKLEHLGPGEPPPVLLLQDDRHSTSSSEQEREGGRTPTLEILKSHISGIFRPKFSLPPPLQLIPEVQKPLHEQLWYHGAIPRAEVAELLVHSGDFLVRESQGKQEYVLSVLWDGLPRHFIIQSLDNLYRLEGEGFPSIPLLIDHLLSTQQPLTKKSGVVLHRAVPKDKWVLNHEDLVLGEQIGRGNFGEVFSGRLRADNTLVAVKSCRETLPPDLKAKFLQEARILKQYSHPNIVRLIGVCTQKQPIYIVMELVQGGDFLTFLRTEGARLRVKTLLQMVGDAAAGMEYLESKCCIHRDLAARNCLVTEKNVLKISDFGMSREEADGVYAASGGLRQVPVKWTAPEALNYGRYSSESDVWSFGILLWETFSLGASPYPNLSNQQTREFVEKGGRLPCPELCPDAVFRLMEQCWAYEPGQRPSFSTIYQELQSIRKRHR
From the text: as §1

[38] = target: RPS6KA4(Kin.Dom.1-terminal) (Homo sapiens (Human), UniProt O75676)
Chain of RPS6KA4(Kin.Dom.1-terminal) (O75676 33-301 limits assumed): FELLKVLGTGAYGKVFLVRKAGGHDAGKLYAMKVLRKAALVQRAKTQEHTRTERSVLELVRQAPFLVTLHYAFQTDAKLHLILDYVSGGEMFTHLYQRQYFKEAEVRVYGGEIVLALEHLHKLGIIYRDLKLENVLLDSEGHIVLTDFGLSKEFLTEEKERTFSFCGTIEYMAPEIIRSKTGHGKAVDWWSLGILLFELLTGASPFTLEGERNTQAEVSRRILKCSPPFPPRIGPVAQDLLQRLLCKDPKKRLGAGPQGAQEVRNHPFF
From the text: as §1

[39] = target: WNK1 (Homo sapiens (Human), UniProt Q9H4A3)
From the text: as §1

[40] = target: RSK2(Kin.Dom.2-C-terminal) (Homo sapiens (Human), UniProt P51812)
From the text: as §1

SMILES | remaining binding at 1 µM [1] | remaining binding at 1 µM [2] | remaining binding at 1 µM [3] | remaining binding at 1 µM [4] | remaining binding at 1 µM [5] | remaining binding at 1 µM [6] | remaining binding at 1 µM [7] | remaining binding at 1 µM [8] | remaining binding at 1 µM [9] | remaining binding at 1 µM [10] | remaining binding at 1 µM [11] | remaining binding at 1 µM [12] | remaining binding at 1 µM [13] | remaining binding at 1 µM [14] | remaining binding at 1 µM [15] | remaining binding at 1 µM [16] | remaining binding at 1 µM [17] | remaining binding at 1 µM [18] | remaining binding at 1 µM [19] | remaining binding at 1 µM [20] | also measured
CCN1CCN(Cc2ccc(Nc3nc4ccc(Oc5ccnc(NC(C)=O)c5)cc4n3C)cc2C(F)(F)F)CC1 [Compound I-2] | 100% | 100% | 100% | 100% | 100% | 85% | 76% | 93% | 96% | 94% | 100% | 30% | 96% | 96% | 63% | 94% | 94% | 37% | 100% | 99% | remaining binding at 1 µM [21]: 100%; remaining binding at 1 µM [22]: 77%; remaining binding at 1 µM [23]: 84%; remaining binding at 1 µM [24]: 49%; remaining binding at 1 µM [25]: 85%; remaining binding at 1 µM [26]: 89%; remaining binding at 1 µM [27]: 93%; remaining binding at 1 µM [28]: 43%; remaining binding at 1 µM [29]: 96%; remaining binding at 1 µM [30]: 100%; remaining binding at 1 µM [31]: 57%; remaining binding at 1 µM [32]: 38%; remaining binding at 1 µM [33]: 93%; remaining binding at 1 µM [34]: 89%; remaining binding at 1 µM [35]: 96%; remaining binding at 1 µM [36]: 92%; remaining binding at 1 µM [37]: 100%; remaining binding at 1 µM [38]: 100%; remaining binding at 1 µM [39]: 100%; remaining binding at 1 µM [40]: 98%
CCN1CCN(Cc2ccc(Nc3nc4ccc(Oc5ccnc(NC(C)=O)c5)c(C)c4n3C)cc2C(F)(F)F)CC1 [Compound I-6, N-(4-(2-(4-((4-ethylpiperazin-1-yl)methyl)-3-(trifluoromethyl)phenylamino)-1,7-dimethyl-1H-benzo[d]imidazol-6-yloxy)pyridin-2-yl)acetamide] | 90% | 85% | 95% | 98% | 96% | 66% | 99% | 100% | 100% | 94% | 99% | 40% | 92% | 90% | 33% | 91% | 89% | 7.4% | 91% | 100% | remaining binding at 1 µM [21]: 87%; remaining binding at 1 µM [22]: 73%; remaining binding at 1 µM [23]: 92%; remaining binding at 1 µM [24]: 81%; remaining binding at 1 µM [25]: 100%; remaining binding at 1 µM [26]: 88%; remaining binding at 1 µM [27]: 86%; remaining binding at 1 µM [28]: 44%; remaining binding at 1 µM [29]: 74%; remaining binding at 1 µM [30]: 100%; remaining binding at 1 µM [31]: 100%; remaining binding at 1 µM [32]: 6.7%; remaining binding at 1 µM [33]: 82%; remaining binding at 1 µM [34]: 88%; remaining binding at 1 µM [35]: 100%; remaining binding at 1 µM [36]: 59%; remaining binding at 1 µM [37]: 82%; remaining binding at 1 µM [38]: 93%; remaining binding at 1 µM [39]: 100%; remaining binding at 1 µM [40]: 99%
